From PubChem BioAssay (NCI)
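1) Cells in 96-well plates. 2) Compound, 48 h, 5 concentrations. 3) Linear interpolation between surrounding doses. 4) Unreached endpoint = highest concentration. At the TGI there is no net growth.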

Key:
Test in all cases: NCI anticancer screen, dose series, 48 h
ACHN renal = test system: ACHN renal
HL-60(TB) leukemia = test system: HL-60(TB) leukemia
A498 renal = test system: A498 renal
RXF-631 renal = test system: RXF-631 renal
SNB-78 CNS = test system: SNB-78 CNS
DMS 273 small cell lung = test system: DMS 273 small cell lung
SK-OV-3 ovarian = test system: SK-OV-3 ovarian
HCT-116 colon = test system: HCT-116 colon
M19-MEL melanoma = test system: M19-MEL melanoma
OVCAR-4 ovarian = test system: OVCAR-4 ovarian
RPMI-8226 leukemia = test system: RPMI-8226 leukemia
DLD-1 colon = test system: DLD-1 colon
DMS 114 small cell lung = test system: DMS 114 small cell lung
HOP-62 NSCLC = test system: HOP-62 NSCLC
NCI-H460 lung = test system: NCI-H460 lung
NCI-H226 lung = test system: NCI-H226 lung
SK-MEL-28 melanoma = test system: SK-MEL-28 melanoma
UO-31 renal = test system: UO-31 renal
COLO 205 colon = test system: COLO 205 colon
NCI-H522 lung = test system: NCI-H522 lung
CAKI-1 renal = test system: CAKI-1 renal
IGROV1 ovarian = test system: IGROV1 ovarian
K-562 leukemia = test system: K-562 leukemia
SNB-75 CNS = test system: SNB-75 CNS
CCRF-CEM leukemia = test system: CCRF-CEM leukemia
HOP-92 NSCLC = test system: HOP-92 NSCLC
MOLT-4 leukemia = test system: MOLT-4 leukemia
MALME-3M melanoma = test system: MALME-3M melanoma
HCC-2998 colon = test system: HCC-2998 colon
SK-MEL-2 melanoma = test system: SK-MEL-2 melanoma
M14 melanoma = test system: M14 melanoma
UACC-62 melanoma = test system: UACC-62 melanoma
NCI-H23 lung = test system: NCI-H23 lung
786-0 renal = test system: 786-0 renal
SR leukemia = test system: SR leukemia
LXFL 529 NSCLC = test system: LXFL 529 NSCLC
SF-268 CNS = test system: SF-268 CNS
OVCAR-5 ovarian = test system: OVCAR-5 ovarian
KM20L2 colon = test system: KM20L2 colon
LOX IMVI melanoma = test system: LOX IMVI melanoma
RXF 393 renal = test system: RXF 393 renal
A549 NSCLC = test system: A549 NSCLC
SF-295 CNS = test system: SF-295 CNS
TK-10 renal = test system: TK-10 renal
OVCAR-8 ovarian = test system: OVCAR-8 ovarian
OVCAR-3 ovarian = test system: OVCAR-3 ovarian
HOP-18 NSCLC = test system: HOP-18 NSCLC
SK-MEL-5 melanoma = test system: SK-MEL-5 melanoma
HT29 colon = test system: HT29 colon
HCT-15 colon = test system: HCT-15 colon
XF 498 CNS = test system: XF 498 CNS
SW-620 colon = test system: SW-620 colon
SNB-19 CNS = test system: SNB-19 CNS
SF-539 CNS = test system: SF-539 CNS
EKVX NSCLC = test system: EKVX NSCLC
UACC-257 melanoma = test system: UACC-257 melanoma
U251 CNS = test system: U251 CNS
KM12 colon = test system: KM12 colon
SN12C renal = test system: SN12C renal

COc1cc([C@H]2Oc3cc(O)c4c(=O)cc(-c5ccc(O)cc5)oc4c3O[C@@H]2CO)ccc1O
TGI (ACHN renal): 63.4 µM
TGI (HL-60(TB) leukemia): 53 µM
TGI (A498 renal): 35.2 µM
TGI (RXF-631 renal): 24.1 µM
TGI (SNB-78 CNS): 98.1 µM
TGI (DMS 273 small cell lung): 31.8 µM
TGI (SK-OV-3 ovarian): 36.6 µM
TGI (HCT-116 colon): 26.4 µM
TGI (M19-MEL melanoma): 36.8 µM
TGI (OVCAR-4 ovarian): 63.2 µM
TGI (RPMI-8226 leukemia): 46 µM
TGI (DLD-1 colon): 32.3 µM
TGI (DMS 114 small cell lung): 40 µM
TGI (HOP-62 NSCLC): 33.5 µM
TGI (NCI-H460 lung): 17.8 µM
TGI (NCI-H226 lung): 39 µM
TGI (SK-MEL-28 melanoma): 28 µM
TGI (UO-31 renal): 54.2 µM
TGI (COLO 205 colon): 31.7 µM
TGI (NCI-H522 lung): 18.6 µM
TGI (CAKI-1 renal): 44.9 µM
TGI (IGROV1 ovarian): 59.3 µM
TGI (K-562 leukemia): 83.5 µM
TGI (SNB-75 CNS): 18.5 µM
TGI (CCRF-CEM leukemia): 44.3 µM
TGI (HOP-92 NSCLC): 60.7 µM
TGI (MOLT-4 leukemia): 53.9 µM
TGI (MALME-3M melanoma): 33.3 µM
TGI (HCC-2998 colon): 28.5 µM
TGI (SK-MEL-2 melanoma): 30.7 µM
TGI (M14 melanoma): 34 µM
TGI (UACC-62 melanoma): 34.2 µM
TGI (NCI-H23 lung): 31.1 µM
TGI (786-0 renal): 29.3 µM
TGI (SR leukemia): 47.8 µM
TGI (LXFL 529 NSCLC): 29.2 µM
TGI (SF-268 CNS): 5.79 µM

O=C1/C(=C/c2ccccc2)CCCC/C1=C\c1ccccc1
TGI (ACHN renal): > 100 µM
TGI (OVCAR-5 ovarian): 97.1 µM
TGI (KM20L2 colon): > 100 µM
TGI (LOX IMVI melanoma): > 100 µM
TGI (A498 renal): > 100 µM
TGI (RXF 393 renal): 59.5 µM
TGI (A549 NSCLC): > 100 µM
TGI (RXF-631 renal): > 100 µM
TGI (SNB-78 CNS): > 100 µM
TGI (DMS 273 small cell lung): > 100 µM
TGI (SF-295 CNS): > 100 µM
TGI (SK-OV-3 ovarian): > 100 µM
TGI (HCT-116 colon): > 100 µM
TGI (TK-10 renal): > 100 µM
TGI (M19-MEL melanoma): > 100 µM
TGI (OVCAR-8 ovarian): > 100 µM
TGI (OVCAR-4 ovarian): > 100 µM
TGI (OVCAR-3 ovarian): > 100 µM
TGI (HOP-18 NSCLC): > 100 µM
TGI (DLD-1 colon): > 100 µM
TGI (SK-MEL-5 melanoma): 70.4 µM
TGI (HT29 colon): 32 µM
TGI (DMS 114 small cell lung): > 100 µM
TGI (HOP-62 NSCLC): > 100 µM
TGI (NCI-H460 lung): > 100 µM
TGI (HCT-15 colon): > 100 µM
TGI (NCI-H226 lung): > 100 µM
TGI (XF 498 CNS): > 100 µM
TGI (SW-620 colon): > 100 µM
TGI (SK-MEL-28 melanoma): > 100 µM
TGI (UO-31 renal): > 100 µM
TGI (COLO 205 colon): > 100 µM
TGI (CAKI-1 renal): > 100 µM
TGI (IGROV1 ovarian): > 100 µM
TGI (SNB-19 CNS): > 100 µM
TGI (SNB-75 CNS): > 100 µM
TGI (SF-539 CNS): > 100 µM
TGI (HOP-92 NSCLC): > 100 µM
TGI (MOLT-4 leukemia): > 100 µM
TGI (MALME-3M melanoma): > 100 µM
TGI (EKVX NSCLC): > 100 µM
TGI (HCC-2998 colon): > 100 µM
TGI (SK-MEL-2 melanoma): > 100 µM
TGI (M14 melanoma): > 100 µM
TGI (UACC-62 melanoma): > 100 µM
TGI (NCI-H23 lung): > 100 µM
TGI (786-0 renal): > 100 µM
TGI (UACC-257 melanoma): > 100 µM
TGI (U251 CNS): > 100 µM
TGI (SR leukemia): > 100 µM
TGI (KM12 colon): > 100 µM
TGI (LXFL 529 NSCLC): > 100 µM
TGI (SN12C renal): > 100 µM
TGI (SF-268 CNS): > 100 µM
